From patent US9205102B2, “Method for treatment of castration-resistant prostate cancer” (The University of British Columbia, priority 2013, dated 2015)
e = 2'-O-(2-methoxyethyl) (MOE); d = 2'-deoxy (DNA)

Tests used:
Assay type in all cases: cell-based
IGFBP-2 = IGFBP-2 level in V16 samples treated with OGX-225; conditions: V16 samples treated with OGX-225 (10 nM)
[1] = tested on: IGFBP-2 or IGFBP-5 (predominant IGFBP); assay: Reduction of IGFBP-2 or IGFBP-5 in prostate cancer cell lines in vitro (FIG. 2); conditions: concentrations of 10 nM to 100 nM
MR42F = assay: Cell viability in enzalutamide resistant cell line MR42F (FIG. 5B); conditions: compared to a scrambled control
Procedure: (§1) FIGS. 5A and B show cell viability in enzalutamide resistant cell lines MR42D and MR42F, respectively.
(§2) Tests were performed on androgen sensitive cells line (LNCaP), castrate resistant, enzalutamide-sensitive prostate cancer cell lines V16A and V16D, which were derived from LNCaP cells grown in castrated nude, Matsumoto, H.; Yamamoto, Y.; Shiota, M.; et al. Cancer Res. (2013) 73(16): 5206-17 and Kuruma, H; Matsumoto, H.; Shiota, M. et al. Mol Cancer Ther (2013) 12(5): 567-76; and castrate resistant, enzalutamide-resistant prostate cancer cell lines MR42D, MR49C, and MR49F which were derived from LNCaP cells grown in castrated nude mice treated with enzalutamide at 10 mg/kg PO daily. BPH-1 is an immortal, benign prostatic hyperplasia cell line (Hayward S W, Dahiya R, Cunha G R, et al. (1995). In Vitro Cell Dev Biol Anim 31: 14-24).

MR42D = assay: Cell viability in enzalutamide resistant cell line MR42D (FIG. 5A); conditions: compared to a scrambled control
Procedure: as §1, §2

[2] = tested on: CRPC cell lines exhibiting resistance to enzaluatamide; assay: Killing of enzalutamide-resistant CRPC cell lines (summary statement); conditions: enzalutamide-resistant CRPC cell lines overexpressing IGFBP-2 or IGFBP-5
Procedure: In a further aspect of the invention, a method for treatment of prostate cancer is provided in which an agent effective to reduce expression of IGFBP-2 and IGFBP-5 is administered to a patient suffering from prostate cancer, and particularly CRPC, concurrently with the administration of androgen-receptor antagonist treatments. Administration of the antisense concurrently with the androgen-receptor antagonist treatment reduces selective pressure towards resistance within the cancer cell population and therefore can delay onset of androgen-receptor antagonist resistance as well as directly providing a therapeutic benefit by killing resistant cells.

## OGX-225: bispecific second generation antisense oligonucleotide to IGFBP-2 and IGFBP-5; 20 base phosphorothioate 5-10-5 MOE gapmer, 5′-CAGCAGCCGCAGCCCGGCTC-3′ (sugars from the 5' end e5 d10 e5, all C 5-methyl, all phosphorothioate, T or U not given here)
IGFBP-2
  IGFBP-2 level: Reduction in the IGFBP-2 level
[1]
  amount of the predominant IGFBP: reduce the amount of the predominant IGFBP in a dose dependent manner
MR42F
  cell viability: substantially reduce the viability
MR42D
  cell viability: substantially reduce the viability
[2]
  killing of resistant cells: capable of killing these resistant cells
